The text below walks through data of ChEMBL document CHEMBL2046303, “Discovery and Development of Potent LFA-1/ICAM-1 Antagonist SAR 1118 as an Ophthalmic Solution for Treating Dry Eye” (ACS Med Chem Lett, 2012).

The source made the active and inactive calls.

Series [1] can be described thus: Solubility of the compound in phosphate-buffered saline. The class given is physicochemical.
Series [2] concerns the target T1, Intercellular adhesion molecule (ICAM-1), Integrin alpha-L/beta-2 (Homo sapiens, UniProt P05107+P05362+P20701). The series can be described thus: Antagonist activity at LFA-1/ICAM-1 in human HuT-78 T-cells assessed as inhibition of cell adhesion after 1 hr by p-nitrophenyl n-acetyl-beta-D-glucosaminide method. It counts as functional, cell-based, HuT78.
Series [3] deals with T1, Intercellular adhesion molecule (ICAM-1), Integrin alpha-L/beta-2. The series can be described thus: Antagonist activity at LFA-1/ICAM-1 in human HuT-78 T-cells assessed as inhibition of cell adhesion after 1 hr by p-nitrophenyl n-acetyl-beta-D-glucosaminide method in presence of 10% human serum. The class given is functional, cell-based, HuT78.
A short description of series [4]: Clearance in Sprague-Dawley rat at 5 mg/kg, iv. It counts as ADME, organism-based. Set-up: dose 5 mg/kg, route intravenous. The note with it: in vivo.
In series [5] the test system is Rattus norvegicus. The series can be described thus: AUC in Sprague-Dawley rat at 5 mg/kg, iv. Conditions: in vivo. Set-up: dose 5 mg/kg, route intravenous. The class given is ADME, organism-based, Plasma.
Series [6] is described as follows: Metabolic stability in rat liver microsomes assessed as compound remaining after 30 mins. It counts as ADME, Microsome. Conditions: read-out: Stability.
The nature of series [7]: Metabolic stability in human liver microsomes assessed as compound remaining after 30 mins. It counts as ADME, Microsome. Conditions: read-out: Stability.
The nature of series [8]: Half life in Sprague-Dawley rat at 5 mg/kg, iv. It counts as ADME, organism-based. Set-up: dose 5 mg/kg, route intravenous. Conditions: in vivo.
The target of series [9] is Cytochrome P450 3A4 (Homo sapiens, UniProt P08684). The series can be described thus: Inhibition of CYP3A4. The class given is ADME.
Chain of Cytochrome P450 3A4 (P08684 whole entry): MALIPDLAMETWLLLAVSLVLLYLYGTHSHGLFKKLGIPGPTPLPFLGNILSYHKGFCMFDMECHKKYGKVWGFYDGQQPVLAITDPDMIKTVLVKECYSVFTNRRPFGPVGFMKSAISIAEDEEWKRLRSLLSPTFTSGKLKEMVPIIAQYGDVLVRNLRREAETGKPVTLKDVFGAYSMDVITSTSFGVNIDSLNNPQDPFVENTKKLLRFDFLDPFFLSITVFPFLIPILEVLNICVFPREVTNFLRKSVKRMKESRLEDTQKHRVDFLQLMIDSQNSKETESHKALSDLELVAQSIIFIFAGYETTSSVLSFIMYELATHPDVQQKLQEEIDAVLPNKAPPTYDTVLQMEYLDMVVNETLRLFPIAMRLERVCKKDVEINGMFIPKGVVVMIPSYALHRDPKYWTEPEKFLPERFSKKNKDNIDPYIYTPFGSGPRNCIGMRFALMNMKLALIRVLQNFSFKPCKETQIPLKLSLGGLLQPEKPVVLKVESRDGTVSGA
Series [10] addresses Cytochrome P450 2C9 (Homo sapiens, UniProt P11712). Briefly: Inhibition of CYP2C9. The class given is ADME.
Series [11] relates to Salmonella typhimurium. The series can be described thus: Genotoxicity in Salmonella typhimurium by Ames test. It counts as toxicity, organism-based. The note with it: salmonella enterica subsp. enterica serovar typhimurium. A general note: The Ames test detects mutagens through reverse mutation in bacteria.
Series [12] has as its system Canis familiaris. Briefly: Increase of mean schirmer's tear test in dog administered topically with 1% PBS solution tid for 12 weeks measured after 1 to 12 weeks. The class given is functional, Canis lupus familiaris.
The nature of series [13]: Drug uptake in rat cornea administered topically as ophthalmic solution after 30 mins. Conditions: in vivo, topical_or_ocular, 0.5 h. The class given is ADME, tissue-based.
A short description of series [14]: Drug uptake in dog cornea administered topically as ophthalmic solution after 30 mins. It counts as ADME, tissue-based, Canis lupus familiaris. The note with it: in vivo, topical_or_ocular, 0.5 h.
The nature of series [15]: Drug uptake in dog bulbar conjunctiva administered topically as ophthalmic solution after 30 mins. It counts as ADME, tissue-based, Canis lupus familiaris. Conditions: in vivo, topical_or_ocular, 0.5 h.
Series [16] is described as follows: Drug uptake in rat palpebral conjunctiva administered topically as ophthalmic solution after 30 mins. The class given is ADME, tissue-based. The note with it: in vivo, topical_or_ocular, 0.5 h.
Series [17] in a line: Drug uptake in dog palpebral conjunctiva administered topically as ophthalmic solution after 30 mins. It counts as ADME, tissue-based, Canis lupus familiaris. Conditions: in vivo, topical_or_ocular, 0.5 h.
Series [18] in a line: Drug uptake in rat bulbar conjunctiva administered topically as ophthalmic solution after 30 mins. It counts as ADME. Conditions: in vivo, topical_or_ocular, 0.5 h.
The target of series [19] is Intercellular adhesion molecule 1 (Homo sapiens) (UniProt P05362). The series can be described thus: Inhibition of ICAM-1-mediated IL-1beta release.
Chain of Intercellular adhesion molecule 1 (Homo sapiens) (P05362 whole entry): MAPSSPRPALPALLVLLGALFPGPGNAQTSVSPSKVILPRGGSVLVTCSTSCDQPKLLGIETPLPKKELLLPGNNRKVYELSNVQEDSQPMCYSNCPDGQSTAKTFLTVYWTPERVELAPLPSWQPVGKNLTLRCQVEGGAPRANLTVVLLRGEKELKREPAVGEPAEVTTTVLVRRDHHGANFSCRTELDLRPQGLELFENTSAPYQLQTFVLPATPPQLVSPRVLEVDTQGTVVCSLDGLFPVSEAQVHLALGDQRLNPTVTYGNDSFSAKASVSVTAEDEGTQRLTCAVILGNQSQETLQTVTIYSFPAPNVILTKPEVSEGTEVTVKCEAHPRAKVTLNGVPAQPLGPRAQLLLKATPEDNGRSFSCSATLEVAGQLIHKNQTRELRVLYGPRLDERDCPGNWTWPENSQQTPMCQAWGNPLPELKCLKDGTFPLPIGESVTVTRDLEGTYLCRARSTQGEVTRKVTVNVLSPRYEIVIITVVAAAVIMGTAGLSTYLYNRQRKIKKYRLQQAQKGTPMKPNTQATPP
Series [20] shares this target. The series can be described thus: Inhibition of ICAM-1-mediated IL-10 release.
The target is the same in series [21]. Briefly: Inhibition of ICAM-1-mediated MIP-1alpha release.
Series [22] has the same target. Briefly: Inhibition of ICAM-1-mediated IL-6 release.
For series [23] the target is unchanged. The series can be described thus: Inhibition of ICAM-1-mediated IL-1alpha release.
Series [24] shares this target. Briefly: Inhibition of ICAM-1-mediated IFNgamma release.

T1 sequence (P20701 whole entry): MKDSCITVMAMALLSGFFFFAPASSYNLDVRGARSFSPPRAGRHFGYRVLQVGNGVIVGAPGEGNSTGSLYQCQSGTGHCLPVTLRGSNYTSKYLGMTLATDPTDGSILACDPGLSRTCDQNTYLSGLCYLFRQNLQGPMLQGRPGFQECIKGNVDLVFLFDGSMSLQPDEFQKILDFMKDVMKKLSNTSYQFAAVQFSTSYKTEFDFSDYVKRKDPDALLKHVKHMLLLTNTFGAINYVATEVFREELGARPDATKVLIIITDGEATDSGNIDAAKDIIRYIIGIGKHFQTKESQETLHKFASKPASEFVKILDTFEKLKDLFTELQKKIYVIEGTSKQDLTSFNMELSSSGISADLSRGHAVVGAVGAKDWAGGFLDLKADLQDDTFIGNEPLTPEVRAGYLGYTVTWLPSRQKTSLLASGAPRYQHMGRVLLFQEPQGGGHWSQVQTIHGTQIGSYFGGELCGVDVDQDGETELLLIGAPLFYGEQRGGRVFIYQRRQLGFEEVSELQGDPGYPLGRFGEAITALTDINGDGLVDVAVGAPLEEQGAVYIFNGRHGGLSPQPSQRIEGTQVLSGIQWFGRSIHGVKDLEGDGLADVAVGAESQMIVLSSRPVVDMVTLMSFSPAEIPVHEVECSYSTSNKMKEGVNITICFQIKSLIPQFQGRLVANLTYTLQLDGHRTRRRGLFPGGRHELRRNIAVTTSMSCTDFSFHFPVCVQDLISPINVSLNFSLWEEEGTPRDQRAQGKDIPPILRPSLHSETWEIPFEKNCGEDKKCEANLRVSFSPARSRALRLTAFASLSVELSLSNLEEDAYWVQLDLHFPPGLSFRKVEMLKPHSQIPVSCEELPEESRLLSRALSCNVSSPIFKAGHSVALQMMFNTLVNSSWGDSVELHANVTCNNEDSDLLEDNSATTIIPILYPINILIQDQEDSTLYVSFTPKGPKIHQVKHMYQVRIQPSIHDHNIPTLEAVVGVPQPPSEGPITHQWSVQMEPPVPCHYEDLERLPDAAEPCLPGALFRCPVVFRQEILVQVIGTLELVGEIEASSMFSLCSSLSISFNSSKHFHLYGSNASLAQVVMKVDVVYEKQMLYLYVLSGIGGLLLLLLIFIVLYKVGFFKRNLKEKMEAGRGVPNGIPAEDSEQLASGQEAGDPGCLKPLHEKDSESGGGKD
T1 sequence (P05362 whole entry): as the sequence (P05362 whole entry) above
T1 sequence (P05107 whole entry): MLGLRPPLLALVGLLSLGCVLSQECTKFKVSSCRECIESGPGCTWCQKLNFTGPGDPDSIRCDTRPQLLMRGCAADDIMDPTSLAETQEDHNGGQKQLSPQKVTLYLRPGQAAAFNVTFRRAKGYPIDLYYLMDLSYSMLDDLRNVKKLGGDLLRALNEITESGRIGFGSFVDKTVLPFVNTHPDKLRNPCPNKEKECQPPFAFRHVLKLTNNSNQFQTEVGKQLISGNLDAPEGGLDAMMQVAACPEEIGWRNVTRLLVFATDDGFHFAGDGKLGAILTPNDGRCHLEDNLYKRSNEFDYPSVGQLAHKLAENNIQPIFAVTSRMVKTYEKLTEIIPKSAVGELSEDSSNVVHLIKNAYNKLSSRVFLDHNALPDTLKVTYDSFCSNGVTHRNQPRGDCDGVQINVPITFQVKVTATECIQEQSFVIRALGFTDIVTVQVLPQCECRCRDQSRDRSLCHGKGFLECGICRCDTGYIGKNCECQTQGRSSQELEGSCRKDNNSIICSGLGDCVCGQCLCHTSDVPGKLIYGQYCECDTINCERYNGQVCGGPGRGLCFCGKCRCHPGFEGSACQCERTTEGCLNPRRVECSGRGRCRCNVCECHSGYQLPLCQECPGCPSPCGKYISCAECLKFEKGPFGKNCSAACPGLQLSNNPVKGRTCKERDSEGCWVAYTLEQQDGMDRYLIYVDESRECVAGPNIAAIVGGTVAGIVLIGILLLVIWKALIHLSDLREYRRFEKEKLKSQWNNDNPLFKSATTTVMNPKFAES
Chain of Cytochrome P450 2C9 (P11712 whole entry): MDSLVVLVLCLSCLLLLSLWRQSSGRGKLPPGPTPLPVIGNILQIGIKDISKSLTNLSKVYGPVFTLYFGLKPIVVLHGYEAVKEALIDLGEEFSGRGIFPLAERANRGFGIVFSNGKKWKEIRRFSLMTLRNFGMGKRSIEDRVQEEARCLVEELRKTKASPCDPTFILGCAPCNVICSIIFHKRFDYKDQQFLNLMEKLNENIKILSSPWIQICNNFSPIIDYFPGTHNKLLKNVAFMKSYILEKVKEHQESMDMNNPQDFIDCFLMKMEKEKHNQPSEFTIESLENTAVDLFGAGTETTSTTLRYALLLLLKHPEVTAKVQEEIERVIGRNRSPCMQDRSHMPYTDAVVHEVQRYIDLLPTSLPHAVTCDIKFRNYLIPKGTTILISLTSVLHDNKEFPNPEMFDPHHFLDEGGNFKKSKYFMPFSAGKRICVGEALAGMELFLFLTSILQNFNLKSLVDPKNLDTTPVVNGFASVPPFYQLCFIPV

The term solubility denotes the dissolved amount per volume that the medium holds. On to `CS(=O)(=O)c1cccc(C[C@H](NC(=O)c2c(Cl)cc3c(c2Cl)CCN(C(=O)c2ccc4ccoc4c2)C3)C(=O)[O-])c1.[Na+]` [LIFITEGRAST SODIUM], for which the solubility in [1] is ≥ 200 mg/mL.

One may read the IC50 as the point on the concentration scale where inhibition reaches its midpoint. `CS(=O)(=O)c1cccc(C[C@H](NC(=O)c2c(Cl)cc3c(c2Cl)CCN(C(=O)c2ccc(Cl)cc2)C3)C(=O)O)c1`: the results for the IC50 in series [2] and in series [3] were 3 nM and 200 nM, respectively.

In general, clearance refers to a measure of how efficiently the substance is removed, as volume per time. Low readings indicate a low capacity for elimination, high ones a high capacity for elimination. Broadly, the AUC is concentration integrated over time. A low value points to less exposure. As usually defined, the half-life is the time needed for the level to fall by half in the phase considered. For `CS(=O)(=O)c1ccc(C[C@H](NC(=O)c2c(Cl)cc3c(c2Cl)CCN(C(=O)c2ccc4ccoc4c2)C3)C(=O)O)o1`, the clearance in series [4] turned out to be 60 mL/min/kg. In [5], this compound showed an AUC of 1510 ng·h/mL. In addition, the results for the remaining at 0.5 h in [6] and in series [7] were > 95% and 65%, respectively. In series [8], the half-life was 25.8 min.

As to `CS(=O)(=O)c1cncc(C[C@H](NC(=O)c2c(Cl)cc3c(c2Cl)CCN(C(=O)c2ccc4ccoc4c2)C3)C(=O)O)c1`, the IC50 in [2] was 39 nM; in series [3] it was 32 nM. Besides, the clearance in [4] amounted to 73.5 mL/min/kg. In [5], the AUC was determined as 1280 ng·h/mL. In addition, the remaining at 0.5 h in [6] and in series [7] was > 95% throughout. In series [8], this compound gave a half-life of 37.2 min.

For `CN(C)S(=O)(=O)c1cccc(C[C@H](NC(=O)c2c(Cl)cc3c(c2Cl)CCN(C(=O)c2ccc4ccoc4c2)C3)C(=O)O)c1`, the IC50 in [2] is 10 nM; in [3], > 10000 nM.

Take `CS(=O)(=O)c1cccc(C[C@H](NC(=O)c2c(Cl)cc3c(c2Cl)CCN(C(=O)c2ccc4ccoc4c2)C3)C(=O)O)c1` [listing 1 of 2 here]: the IC50 in [9] was > 20000 nM; in series [10] it was 3000 nM; in [2], 9 nM; in series [3], 74 nM. The compound further displayed a clearance in series [4] of 139 mL/min/kg. Also, the values for the Activity entry in series [11] and in [12] were “Non-toxic” and 3.4 mm, respectively. This compound also gave an AUC in [5] of 705 ng·h/mL. In addition, the remaining at 0.5 h in series [6] is > 95%; in series [7], 71%. The compound further gave a half-life in series [8] of 46.8 min.

Take `CNS(=O)(=O)c1cccc(C[C@H](NC(=O)c2c(Cl)cc3c(c2Cl)CCN(C(=O)c2ccc4ccoc4c2)C3)C(=O)O)c1`: the IC50 was 13 nM in series [2] and 640 nM in series [3].

As to `CS(=O)(=O)c1cccc(C[C@H](N[14C](=O)c2c(Cl)cc3c(c2Cl)CCN(C(=O)c2ccc4ccoc4c2)C3)C(=O)O)c1`, the Drug uptake entry in series [13], in series [14], in [15], in series [16], in series [17] and in [18] was “Active” in each case.

As to `CS(=O)(=O)c1ccccc1C[C@H](NC(=O)c1c(Cl)cc2c(c1Cl)CCN(C(=O)c1ccc(Cl)cc1)C2)C(=O)O`, the IC50 in series [2] is > 1000 nM.

In the case of `CS(=O)(=O)c1cc(F)cc(C[C@H](NC(=O)c2c(Cl)cc3c(c2Cl)CCN(C(=O)c2ccc4ccoc4c2)C3)C(=O)O)c1`, the IC50 was found to be 10 nM in series [2] and 260 nM in series [3]. In [4], this compound came in with a clearance of 80.5 mL/min/kg. Moreover, the AUC in series [5] turned out to be 1190 ng·h/mL. For the same compound, the remaining at 0.5 h in series [6] and in series [7] was > 95% in each case. This compound gave a half-life in [8] of 39 min.

As to `CC(=O)c1cccc(C[C@H](NC(=O)c2c(Cl)cc3c(c2Cl)CCN(C(=O)c2ccc4ccoc4c2)C3)C(=O)O)c1`, the IC50 in series [2] was 12 nM; in [3], 5600 nM.

For `CS(=O)(=O)c1cc(C[C@H](NC(=O)c2c(Cl)cc3c(c2Cl)CCN(C(=O)c2ccc4ccoc4c2)C3)C(=O)O)ccc1Cl`, the IC50 in series [2] came to 120 nM; in series [3], 2000 nM.

For `CC(C)c1cccc(C[C@H](NC(=O)c2c(Cl)cc3c(c2Cl)CCN(C(=O)c2ccc(Cl)cc2)C3)C(=O)O)c1`, the values for the IC50 in series [2] and in series [3] were 10 nM and > 10000 nM, respectively.

In the case of `CS(=O)(=O)c1ccc(C[C@H](NC(=O)c2c(Cl)cc3c(c2Cl)CCN(C(=O)c2ccc(Cl)cc2)C3)C(=O)O)o1`, the IC50 in [2] came to 6 nM; in [3], 240 nM. This compound also displayed a clearance in series [4] of 74.3 mL/min/kg. Besides, the AUC in series [5] amounted to 1130 ng·h/mL. Also, the remaining at 0.5 h in series [6] is > 95%; in [7] it was 92%. This compound showed a half-life in [8] of 16.2 min.

As to `CS(=O)(=O)c1ccc(C[C@H](NC(=O)c2c(Cl)cc3c(c2Cl)CCN(C(=O)c2ccc(Cl)cc2)C3)C(=O)O)cc1`, the IC50 in [2] is 250 nM.

Regarding `CS(=O)(=O)c1cc(Cl)cc(C[C@H](NC(=O)c2c(Cl)cc3c(c2Cl)CCN(C(=O)c2ccc4ccoc4c2)C3)C(=O)O)c1`, the figures for the IC50 in series [2] and in [3] were 10 nM and 200 nM, respectively.

`CC(C)S(=O)(=O)c1cccc(C[C@H](NC(=O)c2c(Cl)cc3c(c2Cl)CCN(C(=O)c2ccc4ccoc4c2)C3)C(=O)O)c1`: the IC50 in [2] was 200 nM; in [3], > 10000 nM.

Take `CS(=O)(=O)c1cccc(C[C@H](NC(=O)c2c(Cl)cc3c(c2Cl)CCN(C(=O)c2ccc4ccoc4c2)C3)C(=O)O)c1` [listing 2 of 2 here]: the inhibition result in [19], in series [20], in [21], in series [22], in [23] and in series [24] was “Active” throughout.

Turning to `CS(=O)(=O)c1cccc(C[C@H](NC(=O)c2c(Cl)cc3c(c2Cl)CCN(C(=O)c2ccc4ccoc4c2)C3)C(=O)O)c1Cl`, the IC50 in [2] amounted to 800 nM.

With `C[C@@H](O)c1cccc(C[C@H](NC(=O)c2c(Cl)cc3c(c2Cl)CCN(C(=O)c2ccc4ccoc4c2)C3)C(=O)O)c1`, the IC50 in series [2] came out at 10 nM; in series [3] it was 4000 nM.

Turning to `C[S+]([O-])c1cncc(CC(NC(=O)c2c(Cl)cc3c(c2Cl)CCN(C(=O)c2ccc4ccoc4c2)C3)C(=O)O)c1` (racemic), the results for the IC50 in series [2] and in series [3] were 57 nM and 50 nM, respectively. The compound further yielded a clearance in [4] of 121 mL/min/kg. Besides, the AUC in [5] was 753 ng·h/mL. The remaining at 0.5 h in [6] and in series [7] was > 95% throughout. The half-life in [8] is 16.2 min.

`NS(=O)(=O)c1cccc(C[C@H](NC(=O)c2c(Cl)cc3c(c2Cl)CCN(C(=O)c2ccc4ccoc4c2)C3)C(=O)O)c1`: the concentration for half-maximal inhibition (IC50) stood at 4 nM in series [2] and 200 nM in [3]. Further, the clearance in series [4] came to 34.4 mL/min/kg. The compound also yielded an AUC in series [5] of 2430 ng·h/mL. Further, the remaining at 0.5 h was > 95% in series [6] and 71% in [7]. The same compound had a half-life in [8] of 61.8 min.

Regarding `CS(=O)(=O)c1ccc(Cl)c(C[C@H](NC(=O)c2c(Cl)cc3c(c2Cl)CCN(C(=O)c2ccc4ccoc4c2)C3)C(=O)O)c1`, the IC50 in series [2] was 120 nM.

As to `CP(C)(=O)c1cccc(C[C@H](NC(=O)c2c(Cl)cc3c(c2Cl)CCN(C(=O)c2ccc4ccoc4c2)C3)C(=O)O)c1`, the concentration for half-maximal inhibition (IC50) in series [2] is 58 nM; in series [3] it was 490 nM. Further, the clearance in series [4] was found to be 37 mL/min/kg. In addition, the AUC in series [5] is 2260 ng·h/mL. Also, the remaining at 0.5 h in [6] and in series [7] was > 95% each time. In addition, the half-life in series [8] was 22.2 min.

For `CCS(=O)(=O)c1cccc(C[C@H](NC(=O)c2c(Cl)cc3c(c2Cl)CCN(C(=O)c2ccc4ccoc4c2)C3)C(=O)O)c1`, the IC50 in series [2] worked out at 2 nM; in [3] it was 180 nM.

In the case of `C[C@H](O)c1cccc(C[C@H](NC(=O)c2c(Cl)cc3c(c2Cl)CCN(C(=O)c2ccc4ccoc4c2)C3)C(=O)O)c1`, the IC50 in [2] was 14 nM; in [3], 940 nM.
